Data reported in patent US20260092074A1, “Annelated Pyridines as Steroidogenesis Inhibitors, Preparation Method and Use Thereof” (Guangzhou Vinnocent Pharmaceutical Limited, priority 2022, published 2026).

Key:
human CYP11B1 = biological target: T1, human CYP11B1 (Homo sapiens, UniProt P15538); assay: Inhibition of hCYP11B1 in transfected V79 cells; type: cell-based; conditions: hamster V79 cells expressing human CYP11B1; substrate 11-deoxycortisol 200 nM
T1 construct: expressed in transfected cells
T1 sequence (P15538 25-503): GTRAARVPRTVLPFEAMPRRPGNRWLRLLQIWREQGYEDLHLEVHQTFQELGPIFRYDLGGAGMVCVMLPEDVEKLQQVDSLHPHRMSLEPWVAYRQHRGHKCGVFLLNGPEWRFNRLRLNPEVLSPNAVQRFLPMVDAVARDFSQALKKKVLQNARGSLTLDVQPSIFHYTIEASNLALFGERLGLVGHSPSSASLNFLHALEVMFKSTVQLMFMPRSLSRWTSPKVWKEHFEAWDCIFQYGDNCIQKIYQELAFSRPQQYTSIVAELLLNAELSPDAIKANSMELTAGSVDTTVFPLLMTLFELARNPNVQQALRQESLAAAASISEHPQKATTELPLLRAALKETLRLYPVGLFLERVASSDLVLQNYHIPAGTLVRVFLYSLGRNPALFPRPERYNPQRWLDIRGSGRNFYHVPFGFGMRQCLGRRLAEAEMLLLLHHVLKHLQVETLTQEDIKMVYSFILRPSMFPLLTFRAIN
Outline: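 Reactions started with 200 nM 11-deoxycortisol, ran for 30 min and were stopped with ethyl acetate, after a 2 h compound preincubation. The host was stably transfected V79 hamster cells carrying human CYP11B1 plus rat P450 reductase. Percent inhibition, from LC-MS/MS or HPLC (260 nm) quantitation of substrate and product, gave the IC50.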

human CYP11B2 = biological target: T2, human CYP11B2 (Homo sapiens, UniProt P19099); assay: Inhibition of hCYP11B2 in transfected V79 cells; type: cell-based; conditions: hamster V79 cells expressing human CYP11B2; substrate 11-deoxycorticosterone 200 nM
T2 construct: expressed in transfected cells
T2 sequence (P19099 25-503): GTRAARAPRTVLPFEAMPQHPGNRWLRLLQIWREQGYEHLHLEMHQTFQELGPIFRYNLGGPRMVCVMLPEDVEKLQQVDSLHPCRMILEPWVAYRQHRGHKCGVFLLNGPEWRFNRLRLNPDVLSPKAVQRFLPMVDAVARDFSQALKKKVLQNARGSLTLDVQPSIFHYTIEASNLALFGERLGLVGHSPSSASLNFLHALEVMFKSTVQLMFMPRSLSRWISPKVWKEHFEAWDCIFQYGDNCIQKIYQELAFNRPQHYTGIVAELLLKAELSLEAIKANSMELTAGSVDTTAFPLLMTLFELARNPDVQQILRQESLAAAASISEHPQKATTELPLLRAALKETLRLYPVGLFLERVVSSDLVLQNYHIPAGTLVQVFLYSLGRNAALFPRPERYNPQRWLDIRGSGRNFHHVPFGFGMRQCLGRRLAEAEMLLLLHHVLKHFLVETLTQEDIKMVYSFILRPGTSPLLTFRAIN
Outline: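 The substrate (200 nM, 30 min) was added after a 2 hour compound pre-incubation in lentivirus-transduced V79 cells stably expressing human CYP11B2 plus rat NADPH-P450 reductase.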

IC50 (human CYP11B1) [nM] | IC50 (human CYP11B2) [nM] | SMILES
216 | 23.2 | N#Cc1ccc(C(=O)N2CC(S(=O)(=O)N3CCOc4c(-c5ccc(C#N)cc5)cncc43)C2)cc1 [O111, 4-(4-((1-(4-Cyanobenzoyl)azetidin-3-yl)sulfonyl)-3,4-dihydro-2H-pyrido[4,3-b][1,4]oxazin-8-yl)benzonitrile]
169 | 27 | COc1cccc(C(=O)N2CC(S(=O)(=O)N3CCOc4c(-c5ccc(C#N)cc5)cncc43)C2)c1 [O112, 4-(4-((1-(3-Methoxybenzoyl)azetidin-3-yl)sulfonyl)-3,4-dihydro-2H-pyrido[4,3-b][1,4]oxazin-8-yl)benzonitrile]
104 | 3.2 | N#Cc1ccc(-c2cncc3c2OCCN3S(=O)(=O)C2CN(S(=O)(=O)c3cccc(C#N)c3)C2)cc1 [O115, 3-((3-((8-(4-Cyanophenyl)-2,3-dihydro-4H-pyrido[4,3-b][1,4]oxazin-4-yl)sulfonyl)azetidin-1-yl)sulfonyl)benzonitrile]
45 | 2.4 | N#Cc1ccc(-c2cncc3c2OCCN3S(=O)(=O)C2CN(S(=O)(=O)c3cccc(F)c3)C2)cc1 [O117, 4-(4-((1-((3-Fluorophenyl)sulfonyl)azetidin-3-yl)sulfonyl)-3,4-dihydro-2H-pyrido[4,3-b][1, 4]oxazin-8-yl)benzonitrile]
38 | 4.2 | COc1cccc(S(=O)(=O)N2CC(S(=O)(=O)N3CCOc4c(-c5ccc(C#N)cc5)cncc43)C2)c1 [O119, 4-(4-((1-((3-Methoxyphenyl)sulfonyl)azetidin-3-yl)sulfonyl)-3,4-dihydro-2H-pyrido[4,3-b][1,4]oxazin-8-yl)benzonitrile]
36 | 0.4 | N#Cc1ccc(CN2CC(S(=O)(=O)N3CCOc4c(-c5ccc(C#N)cc5)cncc43)C2)cc1 [O121, 4-(4-((1-(4-Cyanobenzyl)azetidin-3-yl)sulfonyl)-3,4-dihydro-2H-pyrido[4,3-b][1,4]oxazin-8-yl)benzonitrile]
28 | 0.5 | COc1ccc(CN2CC(S(=O)(=O)N3CCOc4c(-c5ccc(C#N)cc5)cncc43)C2)cc1 [O125, 4-(4-((1-(4-Methoxybenzyl)azetidin-3-yl)sulfonyl)-3,4-dihydro-2H-pyrido[4,3-b][1,4]oxazin-8-yl)benzonitrile]
256 | 3.3 | N#Cc1ccc(S(=O)(=O)N2CCOc3c(-c4cc5cc(Cl)ccc5o4)cncc32)cc1 [O128, 4-((8-(5-Chlorobenzofuran-2-yl)-2,3-dihydro-4H-pyrido[4,3-b][1,4]oxazin-4-yl)sulfonyl)benzonitrile]
4220 | 55 | N#CC12CC(c3cncc4c3OCCN4C(=O)C3CN(Cc4cccc(F)c4)C3)(C1)C2 [O133, 3-(4-(1-(3-Fluorobenzyl)azetidine-3-carbonyl)-3,4-dihydro-2H-pyrido[4,3-b][1,4]oxazin-8-yl)bicyclo[1.1.1]pentane-1-carbonitrile]

More lines, now with the values behind:

SMILES | IC50 (human CYP11B1) [nM] | IC50 (human CYP11B2) [nM]
Clc1ccc2oc(-c3cncc4c3OCCN4)cc2c1 [O108, 8-(5-Chlorobenzofuran-2-yl)-3,4-dihydro-2H-pyrido[4,3-b][1,4]oxazine] | 359 | 7.9
N#Cc1ccc2oc(-c3cncc4c3OCCN4)cc2c1 [O109, 2-(3,4-Dihydro-2H-pyrido[4,3-b][1,4]oxazin-8-yl)benzofuran-5-carbonitrile] | 376 | 4.8
N#Cc1ccc(-c2cncc3c2OCCN3S(=O)(=O)C2CN(C(=O)c3cccc(C#N)c3)C2)cc1 [O110, 4-(4-((1-(3-Cyanobenzoyl)azetidin-3-yl)sulfonyl)-3,4-dihydro-2H-pyrido[4,3-b][1,4]oxazin-8-yl)benzonitrile] | 484 | 19.3
COc1ccc(C(=O)N2CC(S(=O)(=O)N3CCOc4c(-c5ccc(C#N)cc5)cncc43)C2)cc1 [O113, 4-(4-((1-(4-Methoxybenzoyl)azetidin-3-yl)sulfonyl)-3,4-dihydro-2H-pyrido[4,3-b][1,4]oxazin-8-yl)benzonitrile] | 97 | 3
N#Cc1ccc(-c2cncc3c2OCCN3S(=O)(=O)C2CN(S(=O)(=O)c3ccc(C#N)cc3)C2)cc1 [O114, 4-((3-((8-(4-Cyanophenyl)-2,3-dihydro-4H-pyrido[4,3-b][1,4]oxazin-4-yl)sulfonyl)azetidin-1-yl)sulfonyl)benzonitrile] | 69 | 7
N#Cc1ccc(-c2cncc3c2OCCN3S(=O)(=O)C2CN(S(=O)(=O)c3ccc(F)cc3)C2)cc1 [O116, 4-(4-((1-((4-Fluorophenyl)sulfonyl)azetidin-3-yl)sulfonyl)-3,4-dihydro-2H-pyrido[4,3-b][1, 4]oxazin-8-yl)benzonitrile] | 54 | 3.1
COc1ccc(S(=O)(=O)N2CC(S(=O)(=O)N3CCOc4c(-c5ccc(C#N)cc5)cncc43)C2)cc1 [O118, 4-(4-((1-((4-Methoxyphenyl)sulfonyl)azetidin-3-yl)sulfonyl)-3,4-dihydro-2H-pyrido[4,3-b][1,4]oxazin-8-yl)benzonitrile] | 39 | 2.7
N#Cc1ccc(-c2cncc3c2OCCN3S(=O)(=O)C2CN(Cc3cccc(C#N)c3)C2)cc1 [O120, 3-((3-((8-(4-Cyanophenyl)-2,3-dihydro-4H-pyrido[4,3-b][1,4]oxazin-4-yl)sulfonyl)azetidin-1-yl)methyl)benzonitrile] | 29 | 0.3
N#Cc1ccc(-c2cncc3c2OCCN3S(=O)(=O)C2CN(Cc3cccc(F)c3)C2)cc1 [O122, 4-(4-((1-(3-Fluorobenzyl)azetidin-3-yl)sulfonyl)-3,4-dihydro-2H-pyrido[4,3-b][1,4]oxazin-8-yl)benzonitrile] | 59 | 0.8
N#Cc1ccc(-c2cncc3c2OCCN3S(=O)(=O)C2CN(Cc3ccc(F)cc3)C2)cc1 [O123, 4-(4-((1-(4-Fluorobenzyl)azetidin-3-yl)sulfonyl)-3,4-dihydro-2H-pyrido[4,3-b][1,4]oxazin-8-yl)benzonitrile] | 26 | 0.3
COc1cccc(CN2CC(S(=O)(=O)N3CCOc4c(-c5ccc(C#N)cc5)cncc43)C2)c1 [O124, 4-(4-((1-(3-Methoxybenzyl)azetidin-3-yl)sulfonyl)-3,4-dihydro-2H-pyrido[4,3-b][1,4]oxazin-8-yl)benzonitrile] | 38 | 0.6
N#Cc1ccc(-c2cncc3c2OCCN3S(=O)(=O)C2CN(c3cccc(F)c3)C2)cc1 [O126, 4-(4-((1-(3-Fluorophenyl)azetidin-3-yl)sulfonyl)-3,4-dihydro-2H-pyrido[4,3-b][1,4]oxazin-8-yl)benzonitrile] | 126 | 3
N#Cc1ccc(-c2cncc3c2OCCN3S(=O)(=O)C2CN(c3ccc(F)cc3)C2)cc1 [O127, 4-(4-((1-(4-Fluorophenyl)azetidin-3-yl)sulfonyl)-3,4-dihydro-2H-pyrido[4,3-b][1,4]oxazin-8-yl)benzonitrile] | 197 | 2.3
N#Cc1ccc(S(=O)(=O)N2CCOc3c(-c4cc5cc(C#N)ccc5o4)cncc32)cc1 [O129, 2-(4-((4-Cyanophenyl)sulfonyl)-3,4-dihydro-2H-pyrido[4,3-b][1,4]oxazin-8-yl)benzofuran-5-carbonitril] | 243 | 1.9
N#Cc1ccc(-c2cncc3c2OCCN3S(=O)(=O)c2ccc(C#N)cc2)cc1 [O130, 4-((8-(4-Cyanophenyl)-2,3-dihydro-4H-pyrido[4,3-b][1,4]oxazin-4-yl)sulfonyl)benzonitrile] | 97 | 5
N#Cc1ccc(S(=O)(=O)N2CCOc3c(-c4ccc5ncoc5c4)cncc32)cc1 [O131, 4-((8-(Benzo[d]oxazol-6-yl)-2,3-dihydro-4H-pyrido[4,3-b][1,4]oxazin-4-yl)sulfonyl)benzonitrile] | 248 | 3.3
N#Cc1ccc(S(=O)(=O)N2CCOc3c(-c4ccc5c(c4)NC(=O)C5)cncc32)cc1 [O132, 4-((8-(2-Oxoindolin-6-yl)-2,3-dihydro-4H-pyrido[4,3-b][1,4]oxazin-4-yl)sulfonyl)benzonitrile] | 168 | 5.4
